Measured values as given in ChEMBL document CHEMBL6087420, “Synthesis and pharmacodynamic evaluation of 2-aminoindole derivatives against influenza A virus in vitro/vivo” (Eur J Med Chem, 2025).
The source made the active and inactive calls. The calls are words filed in the database; no cut-off is given here.

Legend:
[1] = test system: Influenza A virus; assay: In vivo antiviral activity against influenza A virus infected in BALB/c mouse assessed as reduction in weight loss at 25 to 100 mg/kg; assay type: functional, organism-based; details: dose 25-100 mg/kg
[2] = test system: MDCK; assay: Inhibition of influenza virus infection induced mitochondrial membrane potential loss in MDCK cells infected with influenza virus assessed as decrease in green fluorescence at 25 to 100 uM by JC-1 probe based confocal microscopy; assay type: functional, cell-based; details: Influenza A virus, dose 25-100 µM
[3] = Toxicity in healthy BALB/c mouse assessed as change in blood indicators at 25 to 100 mg/kg administered through gavage for 6 days; assay type: organism-based; details: in vivo, po, 144 h, dose 25-100 mg/kg, time 6 day
[4] = test system: Influenza A virus; assay: Antiviral activity against influenza A virus infected in human A549 cells assessed as inhibition of NF-kappaB protein expression at 25 to 100 uM by Western blot analysis; assay type: functional, organism-based; details: dose 25-100 µM
[5] = test system: Influenza A virus; assay: Antiviral activity against influenza A virus infected in A549 cells assessed as decrease in IAV-NP expression pretreated for 48 hrs followed by infected with virus by Western blotting analysis; assay type: functional, organism-based; details: dose 25-100 µM
[6] = Toxicity in healthy BALB/c mouse assessed as pathological change in kidney at 25 to 100 mg/kg administered through gavage for 6 days; assay type: organism-based; details: in vivo, po, 144 h, dose 25-100 mg/kg, time 6 day
[7] = test system: Influenza A virus; assay: Anti-influenza activity against influenza A virus H3N2 (A/California/2014) infected in dog MDCK cells incubated for 72 hrs by MTT assay; assay type: functional, organism-based
[8] = test system: Influenza A virus; assay: Antiviral activity against influenza A virus H1NI (A/Weiss/43) infected in MDCK cells assessed as reduction in IAV-NP mRNA by qRT-PCR assay; assay type: functional, organism-based
[9] = test system: Influenza A virus; assay: Antiviral activity against influenza A virus infected in A549 cells assessed as decrease in IAV-M2 expression pretreated for 48 hrs followed by infected with virus by Western blotting analysis; assay type: functional, organism-based; details: dose 25-100 µM
[10] = test system: Influenza A virus; assay: Antiviral activity against influenza A virus H1NI (A/Weiss/43) virus infected in dog MDCK cells assessed as viral inhibition treated after 2 hrs of viral infection measured at 72 hrs incubation by MTT assay; assay type: functional
[11] = test system: Influenza A virus; assay: Inhibition of influenza A virus infection induced apoptosis in MDCK cells infected with influenza virus assessed as viable cells at 50 uM incubated for 36 hrs by AnnexinV-FITC/PI staining based flow cytometry (reference value: 66.9%); assay type: functional

## COc1ccc2c(c1)c(-c1ccccc1)c(NS(C)(=O)=O)n2S(=O)(=O)c1ccc(C)cc1
[1]
  Activity: inactive
[2]
  inhibition: Active
[3]
  Activity: Non-toxic
[4]
  Activity: Active
[5]
  Activity: Dose-dependent-effect
[6]
  Activity: Non-toxic
[7]
  EC50: 18.3 µM
[8]
  Activity: Active
[9]
  Activity: Dose-dependent-effect
[10]
  inhibition (INH): 87.37%
[11]
  Activity: 85.5%
